One may read the ED50 as the dose that gives a 50% effect, or the effect in half of the subjects.

Structures are written as SMILES.

This note sets out measurements from ChEMBL document CHEMBL1125000, “Phosphorus-containing inhibitors of HMG-CoA reductase. 1. 4-[(2-arylethyl)hydroxyphosphinyl]-3-hydroxy-butanoic acids: a new class of cell-selective inhibitors of cholesterol biosynthesis” (J Med Chem, 1990).

Assay [1] deals with T1, 3-hydroxy-3-methylglutaryl-coenzyme A reductase (Rattus norvegicus, UniProt P51639).
T1 sequence (P51639 whole entry): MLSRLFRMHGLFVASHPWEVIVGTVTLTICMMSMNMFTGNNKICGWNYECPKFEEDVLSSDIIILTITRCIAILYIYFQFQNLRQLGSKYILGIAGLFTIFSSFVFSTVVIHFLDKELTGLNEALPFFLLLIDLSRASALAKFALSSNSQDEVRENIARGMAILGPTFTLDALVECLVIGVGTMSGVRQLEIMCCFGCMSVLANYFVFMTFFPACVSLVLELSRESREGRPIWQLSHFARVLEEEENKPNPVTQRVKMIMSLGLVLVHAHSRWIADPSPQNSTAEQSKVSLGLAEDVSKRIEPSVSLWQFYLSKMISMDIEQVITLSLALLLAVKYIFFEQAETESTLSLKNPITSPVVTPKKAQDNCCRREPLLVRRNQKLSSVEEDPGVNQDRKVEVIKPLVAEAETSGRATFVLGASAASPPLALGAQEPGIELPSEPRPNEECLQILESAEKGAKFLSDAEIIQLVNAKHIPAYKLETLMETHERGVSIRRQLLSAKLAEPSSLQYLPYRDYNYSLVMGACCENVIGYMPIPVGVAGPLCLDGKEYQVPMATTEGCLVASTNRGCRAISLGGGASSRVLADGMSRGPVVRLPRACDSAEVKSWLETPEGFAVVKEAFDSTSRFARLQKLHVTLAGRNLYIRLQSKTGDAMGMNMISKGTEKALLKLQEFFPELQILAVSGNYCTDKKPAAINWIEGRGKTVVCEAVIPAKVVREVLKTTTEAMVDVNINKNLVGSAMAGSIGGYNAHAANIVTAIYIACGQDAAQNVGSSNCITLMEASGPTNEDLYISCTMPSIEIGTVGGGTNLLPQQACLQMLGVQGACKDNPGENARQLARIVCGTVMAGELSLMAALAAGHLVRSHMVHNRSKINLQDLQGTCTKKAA
Briefly: Inhibition of rat microsomal HMG-CoA reductase activity by 50%. Conditions: read-out: I50.

The next assay is filed under the species Homo sapiens. The assay is described as follows: Compound was tested for 50% inhibition of cholesterol synthesis in human skin fibroblasts. Type of assay: functional. Conditions: read-out: I50.
Assay [2] concerns Rattus norvegicus. The assay is described as follows: Inhibitory activity for de novo cholesterol synthesis from [14C]acetate was determined in rat after intravenous administration (in vivo). Type of assay: functional.
For assay [3], the species on record is Rattus norvegicus. The assay is described as follows: Compound was tested for 50% inhibition of cholesterol synthesis in isolated rat hepatocytes. Type of assay: functional. Particulars: Hepatocyte, read-out: I50.
Assay [4] concerns Rattus norvegicus. Briefly: Inhibitory activity for de novo cholesterol synthesis from [14C]acetate was determined in rat after oral administration (in vivo). Type of assay: functional.

On to `Cc1cc(C)c(CCCP(=O)(O)C[C@@H](O)CC(=O)O)c(-c2ccc(F)c(C)c2)c1`, for which the IC50 in assay [1] was 150000 nM. With `COP(=O)(C[C@@H](O)CC(=O)O)OCc1c(C)cc(C)cc1-c1ccc(F)c(C)c1` (stereo partly specified), the IC50 in assay [1] was 21600 nM. On to `COP(=O)(C[C@@H](O)CC(=O)O)NCc1c(C)cc(C)cc1-c1ccc(F)c(C)c1` (stereo partly specified), for which, in assay [1], the IC50 was 70500 nM. The same measure, in the same setting: then `Cc1cc(C)c(/C=C/P(=O)(O)C[C@@H](O)CC(=O)O)c(-c2ccc(F)c(C)c2)c1`, with 6.7 nM. The same measure, in the same setting: then `CCc1c(CCP(=O)(O)C[C@@H](O)CC(=O)O)n(-c2ccc(F)cc2)c2ccccc12`, with 13 nM; and `Cc1cc(-c2ccc(F)c(C)c2)c(CCP(=O)(O)C[C@@H](O)CC(=O)O)c(C(C)C)c1`, with 3.8 nM. On the same count and under the same terms, then `Cc1cc(-c2ccc(F)c(C)c2)c(C#CP(=O)(O)C[C@@H](O)CC(=O)O)c(C(C)C)c1`, with 8.5 nM; and `COP(=O)(CCc1c(C)cc(C)cc1-c1ccc(F)c(C)c1)C[C@@H](O)CC(=O)O` (stereo partly specified), with 4600 nM. Turning to `CC(C)c1c(C#CP(=O)(O)C[C@@H](O)CC(=O)O)n(-c2ccc(F)cc2)c2ccccc12`, the IC50 in assay [1] came to 2.2 nM; in the assay filed under Homo sapiens, 8900 nM; in the assay filed under Rattus norvegicus [3], 93 nM. Besides, the ED50 came out at 0.09 mg/kg in the assay on Rattus norvegicus [2] and 1.1 mg/kg with Rattus norvegicus [4].

Take `Cc1cc(C)c(/C=C\P(=O)(O)C[C@@H](O)CC(=O)O)c(-c2ccc(F)c(C)c2)c1`: the IC50 in assay [1] is 3000 nM.

Regarding `Cc1cc(C)c(COP(=O)(O)C[C@@H](O)CC(=O)O)c(-c2ccc(F)c(C)c2)c1`, the IC50 in assay [1] turned out to be 162 nM; in the assay listed under Homo sapiens it was 327000 nM; in the assay filed under Rattus norvegicus [3], 260 nM. The ED50 was 0.14 mg/kg with Rattus norvegicus [2] and over 10 mg/kg with Rattus norvegicus [4].

`CCc1c(C#CP(=O)(O)C[C@@H](O)CC(=O)O)n(-c2ccc(F)cc2)c2ccccc12`: in assay [1], the IC50 came to 87.5 nM. In the case of `O=C(O)C[C@H](O)CP(=O)(O)C#CC1=C(c2ccc(F)cc2)c2ccccc2C12CCCCC2`, the IC50 in assay [1] amounted to 3 nM. On the same count and under the same terms, then `CC(C)c1c(/C=C/P(=O)(O)C[C@@H](O)CC(=O)O)n(-c2ccc(F)cc2)c2ccccc12`, with 1.9 nM. As to `CC[C@H](C)C(=O)O[C@H]1C[C@@H](C)C=C2C=C[C@H](C)[C@H](CC[C@@H](O)C[C@@H](O)CC(=O)[O-])[C@H]21.[Na+]`, the IC50 amounted to 19 nM in the assay filed under Homo sapiens and 146 nM in the assay filed under Rattus norvegicus [3]. In addition, the ED50 with Rattus norvegicus [2] worked out at 0.033 mg/kg; in the assay with Rattus norvegicus [4], 0.4 mg/kg. As for `O=C(O)C[C@H](O)CP(=O)(O)C#CC1=C(c2ccc(F)cc2)c2ccccc2C12CCCC2`, the IC50 in assay [1] came to 2.8 nM; in the assay filed under Homo sapiens, 11000 nM; in the assay filed under Rattus norvegicus [3] it was 245 nM. In addition, the ED50 stood at 0.027 mg/kg in the assay on Rattus norvegicus [2] and 0.38 mg/kg with Rattus norvegicus [4]. Consider `Cc1cc(-c2ccc(F)c(C)c2)c(COP(=O)(O)C[C@@H](O)CC(=O)O)c(C(C)C)c1`, for which, in assay [1], the IC50 amounted to 1.2 nM.

Turning to `Cc1cc(C)c(C#CP(=O)(O)C[C@@H](O)CC(=O)O)c(-c2ccc(F)c(C)c2)c1`, the IC50 in assay [1] was determined as 297 nM.

As to `CC(C)n1c(CCP(=O)(O)C[C@@H](O)CC(=O)O)c(-c2ccc(F)cc2)c2ccccc21`, in assay [1], the IC50 came to 24 nM. On to `CC(C)c1c(CCP(=O)(O)C[C@@H](O)CC(=O)O)n(-c2ccc(F)cc2)c2ccccc12`, for which the IC50 in assay [1] was found to be 120 nM. On the same count and under the same terms, then `O=C(O)C[C@H](O)CP(=O)(O)/C=C/C1=C(c2ccc(F)cc2)c2ccccc2C12CCCC2`, with 2.1 nM; and `CC(C)n1c(/C=C/P(=O)(O)C[C@@H](O)CC(=O)O)c(-c2ccc(F)cc2)c2ccccc21`, with 26 nM; and `O=C(O)C[C@H](O)CP(=O)(O)C#CC1=C(c2ccc(F)cc2)c2ccccc2C12CC2`, with 70 nM. On to `Cc1cc(C)c(CCP(=O)(O)C[C@@H](O)CC(=O)O)c(-c2ccc(F)c(C)c2)c1`, for which the IC50 in assay [1] amounted to 15 nM; in the assay listed under Homo sapiens, 64000 nM; in the assay filed under Rattus norvegicus [3], 85 nM. In addition, the results for the ED50 in the assay with Rattus norvegicus [2] and in the assay with Rattus norvegicus [4] were 0.05 mg/kg and 6.7 mg/kg, respectively.

On to `CC(C)n1c(C#CP(=O)(O)C[C@@H](O)CC(=O)O)c(-c2ccc(F)cc2)c2ccccc21`, for which, in assay [1], the IC50 stood at 6 nM. The same measure, in the same setting: then `Cc1cc(C)c(CP(=O)(O)C[C@@H](O)CC(=O)O)c(-c2ccc(F)c(C)c2)c1`, with 89300 nM; and `Cc1cc(C)c(OCP(=O)(O)C[C@@H](O)CC(=O)O)c(-c2ccc(F)c(C)c2)c1`, with 4500 nM. Consider `CC[C@H](C)C(=O)O[C@H]1C[C@H](O)C=C2C=C[C@H](C)[C@H](CC[C@@H](O)C[C@@H](O)CC(=O)[O-])[C@H]21.[Na+]` [PRAVASTATIN SODIUM], for which the IC50 in assay [1] stood at 26 nM; in the assay filed under Homo sapiens, 3100 nM; in the assay listed under Rattus norvegicus [3], 100 nM. Further, the figures for the ED50 in the assay on Rattus norvegicus [2] and with Rattus norvegicus [4] were 0.053 mg/kg and 0.75 mg/kg, respectively.
